{"source": "paper PMC3824214", "about": "“A Novel Factor Xa-Inhibiting Peptide from Centipedes Venom” (International Journal of Peptide Research and Therapeutics, 2013)", "key": {"[1]": {"system": "normal citrated PPP (platelet poor plasma)", "type": "biochemical, ICR mice", "details": "for APTT: sample diluted in PBS pH 8.34, mouse PPP, 3 min at 37 °C, triplicates, mean ± SE", "method": "(§1) Blood was drawn by Eyeball from ICR mice. The blood was separately centrifuged at 2,500×g for 10 min to obtain platelet poor plasma (PPP). For the in vitro aPTT assay, normal citrated PPP (50 μl) was incubated with sample solution (8, 6, 4, 2, 1 mg/ml, previously diluted in PBS, pH 8.34, 50 μl) and 100 μl aPTT reagent for 3 min at 37 °C. Clotting time was immediately recorded after the addition of 100 μl of 20 mM CaCl2. For the in vitro PT assay, normal citrated PPP (25 μl) was incubated with sample solution (8, 6, 4, 2, 1 mg/ml, previously diluted in PBS, pH 8.34, 25 μl) for 3 min at 37 °C. Clotting time was immediately recorded after the addition of 50 μl of PT reagent (Majdoub et al. [2009]). All coagulation assays were performed in triplicates. Heparin was used as a positive control, and PBS (pH 8.34) as model control. For ex vivo coagulation assays, samples were dissolved in saline and were intravenously injected (10 or 20 mg/kg) in ICR mice (6 animals/group). Five and 24 h after drug administration, blood was collected (drawn by eyeball), immediately centrifuged (3,000 rpm, 15 min), and the plasma was used to measure the aPTT and PT as previously described (Batista et al. [2010])."}, "[2]": {"system": "normal citrated PPP (platelet poor plasma)", "assay": "in vitro PT clotting assay", "type": "biochemical, ICR mice", "details": "sample diluted in PBS pH 8.34, mouse PPP, 3 min at 37 °C, triplicates, mean ± SE", "method": "as §1"}, "[3]": {"system": "whole blood clotting", "assay": "Whole blood clotting time in vivo, capillary glass tube method", "parameters": "species or system mice", "details": "for Effect on whole blood clotting time: TNGYT 10 and 20 mg/kg, heparin 20 mg/kg, versus control group, P < 0.01; for CT (clotting time): six per group, mean ± SE, saline 273.2 s", "method": "Whole blood clotting time (CT) in mice was measured by capillary glass tube method (Li et al. [2004]). Mice (18–22 g body weight) were divided into four groups (both sexes, six per group). Two groups were received intravenous injection of 20 and 10 mg/kg body weight of the purified peptide for four consecutive days. Other groups were received normal saline and 20 mg/kg body weight of heparin (the positive control), respectively. Fifteen minutes after the last administration (positive control after 2 h), blood samples were collected through the retro-orbital plexus with a glass capillary and kept on a slide to allow for clotting. Stirring the blood with a dry needle every 30 s until needle wire can provoke a fibrous protein, when is defined as clotting time."}, "[4]": {"system": "bleeding time", "assay": "Bleeding time in vivo, tail cut", "parameters": "species or system ICR mice", "details": "for BT (bleeding time): 6 animals/group, mean ± SE, saline 315.2 s", "method": "The mice (both sexes, 18–22 g) were randomly divided into four groups. The samples were intravenously injected (10 or 20 mg/kg) in ICR mice (6 animals/group) once a day in four consecutive days. Fifteen minutes after the last administration (positive control after 2 h), the mice tail was marked with a tag in the distance of 3 mm to after peak, then cut in the mark. Then the tip of the tail was immersed in saline at 37 °C. Record the time from cutting the tip of the tail to stopping bleeding, the interval was called bleeding time (Kogushi et al. [2011]). Heparin was used as positive control, and 0.9 % saline as model control."}, "[5]": {"details": "from S. subspinipes mutilans; ref Kong et al. [2013]; cited from earlier work", "source_text": "The centipede contains many bioactive components, including 5-hydroxytryptamine, histamine, lipids, polysaccharides, and various enzymes (e.g. proteinases and esterases) (Knysak et al. [1998]; Gomes et al. [1983]). They have been widely used as traditional folk medicine to treat thrombotic diseases in China (Pemberton [1999]) for several hundred years. […] Wu et al. ([2009]) found centipede acidic protein (CAP) signif ..."}, "[6]": {"system": "plasma of treated mice (aPTT)", "assay": "ex vivo aPTT assay", "type": "in vivo, ICR mice", "details": "for APTT: ex vivo, ICR mice, 6 animals/group, mean ± SE", "method": "as §1"}, "[7]": {"system": "plasma of treated mice (PT)", "assay": "ex vivo PT assay", "type": "in vivo, ICR mice", "details": "for PT: ex vivo, ICR mice, 6 animals/group, mean ± SE", "method": "as §1"}, "[8]": {"biological_target": "T1, human FXa (Homo sapiens, UniProt P00742)", "T1 construct": "Purified human FXa; purchased HYPHEN BioMed (Neuvile sur Oise, France)", "T1 sequence (P00742 235-488 limits assumed)": "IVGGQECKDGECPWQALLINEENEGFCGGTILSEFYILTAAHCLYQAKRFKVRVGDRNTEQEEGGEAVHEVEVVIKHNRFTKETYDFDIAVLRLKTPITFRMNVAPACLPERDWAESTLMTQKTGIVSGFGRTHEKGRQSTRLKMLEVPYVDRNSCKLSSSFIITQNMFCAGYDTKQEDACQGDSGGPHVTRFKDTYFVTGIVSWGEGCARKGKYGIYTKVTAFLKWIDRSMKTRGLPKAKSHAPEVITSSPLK", "T1 sequence (P00742 41-179 partner limits assumed)": "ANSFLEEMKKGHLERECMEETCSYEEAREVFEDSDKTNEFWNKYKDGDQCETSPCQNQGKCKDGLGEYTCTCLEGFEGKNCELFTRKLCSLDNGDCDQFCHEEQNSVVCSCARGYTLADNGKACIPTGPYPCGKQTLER", "assay": "FXa inhibition assay, chromogenic substrate S-2222", "type": "biochemical", "source_text": "Sephadex G-50 was obtained from Pharmacia (Uppsala, Sweden). Purified human FXa and chromogenic substrate of FXa (S2222) were purchased from HYPHEN BioMed (Neuvile sur Oise, France). Mice of both sexes were from Qinglongshan animal center (Nanjing, Jiangsu Province, China). All the animal protocols were approved by the Animal Care and Use Committee at China Pharmaceutical University. All other chemicals and reagents were at analytical grade.\nChromogenic substrate method was used to measure the FXa-inhibiting activity. Inhibition was determined by FXa residual activity on the chromogenic substrate BIOPHEN CS-11 (S-2222) (22), which liberates the chromophoric group pNA (p-nitroaniline) (van Wijk and Smit [1984]). Different concentrations of the peptide (5–60 mg/ml) were incubated with FXa for 30 min at 37 °C in PBS (pH 8.34). The reaction was initiated by adding the substrate into the peptide solution (Ibrahima et al. [2001]). The absorbance at 405 nm was recorded every 0.5 min in 5 min. In A–t curve, the curve slope was considered as reaction rate (v).\nInhibition rate(%)=V0- Vi/V0×100%, V0 is the rate of PBS (pH 8.34, model control), and Vi is the rate of peptide."}}, "note": "“And” between values parts separate entries of the source, which are not always exact repeats. Equal entries are not always repeated. Where two headings read alike, the source gives them in different places. Marks after values point to notes of the source that are not given here."}
{"substance": "Heparin [reference compound]", "values": [{"measurement": "APTT", "setting": "[1]; in vitro, 1 mg/ml", "value": ">60.0** s"}, {"measurement": "PT", "setting": "[2]; 1 mg/ml", "value": ">60.0** s"}, {"measurement": "Effect on whole blood clotting time", "setting": "[3]", "value": "significantly prolong whole blood clotting time"}, {"measurement": "CT (clotting time)", "setting": "[3]; positive control 20 mg/kg, 2 h after administration, mice", "value": "718.8 ± 60.15", "unit": "s"}, {"measurement": "BT (bleeding time)", "setting": "[4]; positive control 20 mg/kg, 2 h after last administration", "value": "804.3 ± 87.7", "unit": "s"}]}
{"substance": "Ser-Gln-Leu (SQL) [anti-thrombotic peptide isolated from S. subspinipes mutilans]", "values": [{"measurement": "Anti-thrombotic activity", "setting": "[5]", "value": "anti-thrombotic"}]}
{"substance": "Thr-Asn-Gly-Tyr-Thr (TNGYT)", "values": [{"measurement": "Biological activity, natural vs synthesized peptide (aPTT and PT assays)", "setting": "[1]; aPTT and PT assays, data in Table 1 of Supplementary Data", "value": "the same biological activity"}, {"measurement": "Potency relative to heparin, fold lower", "setting": "[1]; in vitro assay, lower than heparin", "value": "at least 8 -folded"}, {"measurement": "APTT", "setting": "[1]; in vitro, 1 mg/ml", "value": "36.7 ± 1.5", "unit": "s"}, {"measurement": "APTT", "setting": "[1]; in vitro, 2 mg/ml", "value": "44.0 ± 2.0", "unit": "s"}, {"measurement": "APTT", "setting": "[1]; in vitro, 4 mg/ml", "value": "44.0 ± 1.0", "unit": "s"}, {"measurement": "APTT", "setting": "[1]; in vitro, 8 mg/ml, 0.9 % saline control 33.3 s", "value": "57 s and 57.0 ± 2.0 s"}, {"measurement": "Action on aPTT and PT relative to heparin", "setting": "[1]; in vitro, aPTT and PT, versus heparin (1 mg/ml)", "value": "lower than the positive control heparin"}, {"measurement": "PT", "setting": "[2]; 1 mg/ml", "value": "14.7 ± 0.6", "unit": "s"}, {"measurement": "PT", "setting": "[2]; 2 mg/ml", "value": "15.3 ± 1.5", "unit": "s"}, {"measurement": "PT", "setting": "[2]; 4 mg/ml", "value": "17.7 ± 0.6", "unit": "s"}, {"measurement": "PT", "setting": "[2]; 8 mg/ml, 0.9 % saline control 12.7 s", "value": "23.3 s and 23.3 ± 1.5 s"}, {"measurement": "Alteration of aPTT ex vivo", "setting": "[6]; 10 or 20 mg/kg i.v., 5 and 24 h, mice", "value": "increases in the aPTT were observed"}, {"measurement": "APTT", "setting": "[6]; 5 h after 10 mg/kg i.v., saline 49.0 s", "value": "59.0 ± 2.0", "unit": "s"}, {"measurement": "APTT", "setting": "[6]; 5 h after 20 mg/kg i.v., saline 49.0 s", "value": "65.7 ± 3.1", "unit": "s"}, {"measurement": "APTT", "setting": "[6]; 24 h after 10 mg/kg i.v., saline 47.0 s", "value": "49.3 ± 1.5", "unit": "s"}, {"measurement": "APTT", "setting": "[6]; 24 h after 20 mg/kg i.v., saline 47.0 s", "value": "51.3 ± 2.3", "unit": "s"}, {"measurement": "Alteration of PT ex vivo", "setting": "[7]; 10 or 20 mg/kg i.v., mice", "value": "no significant alterations were observed in the PT"}, {"measurement": "PT", "setting": "[7]; 5 h after 10 mg/kg i.v., saline 15.7 s", "value": "16.7 ± 0.6", "unit": "s"}, {"measurement": "PT", "setting": "[7]; 24 h after 10 mg/kg i.v., saline 17.7 s", "value": "18.7 ± 1.5", "unit": "s"}, {"measurement": "PT", "setting": "[7]; 24 h after 20 mg/kg i.v., saline 17.7 s", "value": "18.3 ± 0.6", "unit": "s"}, {"measurement": "CT (clotting time)", "setting": "[3]; 10 mg/kg i.v., four consecutive days, 15 min after last administration, mice", "value": "389.0 ± 35.74", "unit": "s"}, {"measurement": "CT (clotting time)", "setting": "[3]; 20 mg/kg i.v., four consecutive days, 15 min after last administration, mice", "value": "463.0 ± 48.8", "unit": "s"}, {"measurement": "Effect on whole blood clotting time", "setting": "[3]", "value": "significantly prolong whole blood clotting time"}, {"measurement": "Effect in prolonging the clotting time compared to heparin", "setting": "[3]; same dose of 20 mg/kg, i.v., mice", "value": "about 50%"}, {"measurement": "BT (bleeding time)", "setting": "[4]; 10 mg/kg i.v. once a day, four consecutive days, 15 min after last administration", "value": "447.5 ± 78.1", "unit": "s"}, {"measurement": "BT (bleeding time)", "setting": "[4]; 20 mg/kg i.v. once a day, four consecutive days, 15 min after last administration", "value": "549.7 ± 60.9", "unit": "s"}, {"measurement": "Effect on bleeding time", "setting": "[4]; 10 and 20 mg/kg, versus model control, P < 0.01", "value": "significantly prolong the bleeding time"}, {"measurement": "Risk of bleeding relative to heparin", "setting": "[4]; equal dose 20 mg/kg, inferred from bleeding time", "value": "lower than that of heparin"}, {"measurement": "Inhibition of FXa activity", "setting": "[8]; 60 mg/ml, 30 min at 37 °C, PBS pH 8.34, substrate S-2222, absorbance 405 nm", "value": 59.75, "unit": "%"}, {"measurement": "Inhibition rate of FXa relative to other protein/peptide FXa inhibitors", "setting": "[8]; versus Ac-AP-12, Amblyomin-X, Nymphal FXa inhibitor, AduNAP4", "value": "lower than FXa inhibitors mentioned above"}]}
